{
  "source": "paper PMC3884022",
  "about": "(Journal of Hematology & Oncology, 2014)",
  "origin": "cited, not measured here",
  "key": {"AKT1": {"tested_on": "AKT1", "design": "method as in earlier work", "conditions": "cited from earlier work"}, "[1]": {"tested_on": "NCI-H292 and A2780 tumor cells", "conditions": "with carboplatin and docetaxel; cited from earlier work"}, "AKT2": {"tested_on": "AKT2", "design": "method as in earlier work", "conditions": "cited from earlier work"}, "AKT3": {"tested_on": "AKT3", "design": "method as in earlier work", "conditions": "cited from earlier work"}, "[2]": {"tested_on": "mouse NCI-H292 tumor xenografts", "conditions": "3 times per week and QW schedule of MK-2206; cited from earlier work"}},
  "data": [
    {"smiles": "NC1(c2ccc(-c3nc4ccn5c(=O)[nH]nc5c4cc3-c3ccccc3)cc2)CCC1", "note": "[MK-2206]", "values": [
      {"measurement": "IC50", "setting": "AKT1", "result": "[…]"},
      {"measurement": "inhibition of tumor cell growth in combination", "setting": "[1]", "result": "synergy"},
      {"measurement": "IC50", "setting": "AKT2", "result": 0.012, "unit": "µM"},
      {"measurement": "IC50", "setting": "AKT3", "result": 0.065, "unit": "µM"},
      {"measurement": "tumor growth suppression in combination with erlotinib", "setting": "[2]", "result": "significantly greater in vivo tumor growth suppression and tumor regressions over each single agent"}
    ]}
  ]
}
